From US20230381183A1, “USE OF FOLIC ACID AND FOLATE MODIFICATION IN INDUCING B-CELL IMMUNE TOLERANCE AND TARGETING mIgM-POSITIVELY-EXPRESSED B-CELL LYMPHOMA” (FUDAN UNIVERSITY, priority 2020, published 2023)
Where no end group is shown, it is not given here.

Assays:
[1] = test system: Anti-Drug Antibodies (ADAs); details: phase I single-dose study, healthy subjects; cited from earlier work
[2] = Water solubility (observation on preparation); type: physicochemical
OVA-specific IgG = test: Oral folic acid: serum OVA-specific IgG by ELISA; type: in vivo, BALB/c female mice
Description: The BALB/c female mice (5 weeks old) were randomly divided into 4 groups, with 6 mice in each group, and were treated as follows: (1) FA(ig) group: each mouse was administered with 3 mg free folic acid by gavage every day for two weeks: (2) FA(ig)+OVA group: each mouse was administered with 3 mg free folic acid by gavage every day for two weeks, and was administered with OVA via tail vein injection on day 0 and day 7 respectively (10 μg/mouse): (3) OVA group: each mouse was administered with OVA via tail vein injection on days 0 and day 7 respectively (10 μg/mouse); (4) Physiological saline group: each mouse was administered with physiological saline via tail vein injection on day 0 and day 7 respectively. Then, on days 14, 21 and 28, all mice were administered with 100 μl mixed solution of OVA and KLH (hemocyanin) in water (100 μg/mL OVA and 100 ug/mL KLH). The serum was collected before the administration of the mixed solution on days 14, 21 and 28 and on day 35. The specific antibodies in the serum were detected by ELISA. […] The immune function of the body recovered when the administration of FA is discontinued.

[3] = test system: antibodies against infliximab; test: Serum antibodies against infliximab by ELISA; type: in vivo, BALB/c female mice; details: FA gavage+infliximab group: 3 mg free folic acid per day for two weeks, infliximab 60 μg/mouse iv days 0, 7, 14; serum day 21
Description: The BALB/c female mice (6 weeks old) were randomly divided into infliximab group, FA gavage+infliximab group and physiological saline group, with 5 mice in each group. For the infliximab group, a dose of 60 μg antibody/mouse was administrated via tail vein injection on days 0, 7 and 14. For the FA gavage+infliximab group, each mouse was administered with 3 mg free folic acid by gavage per day for two weeks, and infliximab was administered via tail vein injection at a dose of 60 μg antibody/mouse on days 0, 7 and 14. For the physiological saline group, the mice were injected with physiological saline via tail vein on days 0, 7 and 14. One week after the last administration (day 21), the serum was collected from the mice, and was measured by ELISA for the antibodies against infliximab.

KLH-specific antibodies = test: Oral folic acid: serum KLH-specific antibodies by ELISA; type: in vivo, BALB/c female mice; details: FA(ig) group vs physiological saline group; days 21, 28, 35
Description: The BALB/c female mice (5 weeks old) were randomly divided into 4 groups, with 6 mice in each group, and were treated as follows: (1) FA(ig) group: each mouse was administered with 3 mg free folic acid by gavage every day for two weeks: (2) FA(ig)+OVA group: each mouse was administered with 3 mg free folic acid by gavage every day for two weeks, and was administered with OVA via tail vein injection on day 0 and day 7 respectively (10 μg/mouse): (3) OVA group: each mouse was administered with OVA via tail vein injection on days 0 and day 7 respectively (10 μg/mouse); (4) Physiological saline group: each mouse was administered with physiological saline via tail vein injection on day 0 and day 7 respectively. Then, on days 14, 21 and 28, all mice were administered with 100 μl mixed solution of OVA and KLH (hemocyanin) in water (100 μg/mL OVA and 100 ug/mL KLH). The serum was collected before the administration of the mixed solution on days 14, 21 and 28 and on day 35. The specific antibodies in the serum were detected by ELISA. […] The results also confirmed that the immune function of the body recovered when the administration of FA is discontinued.

[4] = test system: antibodies against trastuzumab; test: Serum antibodies against trastuzumab by ELISA; type: in vivo, BALB/c female mice; details: FA gavage+trastuzumab group: 3 mg free folic acid per day for two weeks, trastuzumab 60 μg/mouse iv days 0, 7, 14; serum day 21
Description: For the FA gavage+trastuzumab group, each mouse was administered by gavage with 3 mg free folic acid per day for two weeks, and trastuzumab was administered via tail vein injection at a dose of 60 μg antibody/mouse on days 0, 7 and 14. For the physiological saline group, the mice were injected with physiological saline via tail vein on days 0, 7 and 14. One week after the last administration (day 21), the serum was collected from the mice, and was measured by ELISA for the antibodies against trastuzumab.

antibodies against sLip = test: Serum antibodies against liposomes (sLip) by ELISA; type: in vivo, BALB/c female mice; details: mixed solution of liposome 5 mg/kg and 10 μg or 50 μg FA, single dose tail vein; serum 5 days after
Description: Liposomes (sLip) were prepared firstly. HSPC. Chol and mPEG2000-DSPE (all purchased from AVT (Shanghai) Pharmaceutical Tech Co., Ltd.) were weighted in a molar ratio of 52:43:5. The film materials were dissolved in 5 mL chloroform, and the mixture was subjected to rotary evaporation under reduced pressure to remove chloroform, to obtain a uniform lipid film. Residual organic solvent was removed by vacuum drying overnight. Shaking in a water bath at 60° C. was performed until the liposome membrane is completely hydrated to obtain white liposome suspension. The liposome suspension went through 200 and 100 nuclear pore membrane by a micro-extruder sequentially, to obtain a liquid with pale blue opalescence, i.e., a liposome (sLip) solution.
The BALB/c female mice (6 weeks old) were randomly divided into sLip group, sLip+FA (10 μg) group, sLip+FA (50 μg) group and physiological saline group, with 4 mice in each group. For the sLip group, the liposome solution (5 mg liposome/kg mouse body weight) was administered in a single dose via tail vein. For sLip+FA([…]) group, a mixed solution of liposome (5 mg liposome/kg mouse body weight) and 10 μg FA was administered in a single dose via tail vein. […] Serum was collected from all mice 5 days after administration, and was measured by ELISA for the concentrations of the antibodies against sLip.

[5] = test system: experimental autoimmune encephalomyelitis (EAE) model; test: Experimental autoimmune encephalomyelitis (EAE) model; type: in vivo, female C57/BL6 mice; details: 10 μg/mouse iv once a week x3 before PLP emulsion induction
Description: The efficacy of folate modification in autoimmune encephalomyelitis was investigated using an experimental autoimmune encephalomyelitis (EAE) model. The model was established as follows: the animals were injected with whole protein or protein fragment (e.g., PLP polypeptide) that induces nerve cell myelin sheath and peripheral protein, causing inflammation and demyelination symptoms and inducing the autoimmune response of the animal: thereby the injected self-proteins are regarded as foreign objects and cause the immune system to attack the self myelin sheath.
The female C57/BL6 mice were intravenously injected with PLP polypeptide (amino acid sequence. […]) or folate-PLP complex (FA-PLP) at a dose of 10 μg/mouse, once a week for three times in total. One week later, the emulsion of PLP polypeptide in Freund's complete adjuvant was prepared, the concentration of PLP being 1 μg/μL. Four points were set up on both sides of the back of the mouse, and 0.05 mL PLP emulsion was injected subcutaneously at each point to induce inflammation, 2 and 24 hours after PLP injection, 150 ng pertussis toxin was injected intraperitoneally. The incidence in the mice was observed every day, and the mice were scored according to the 5-point scoring standard (Kono method). The incidence scoring curve was plotted.

[6] = test system: anaphylactic shock in OVA-sensitized mice; test: Treatment of anaphylactic shock: OVA-sensitized mice treated, then OVA challenge; type: in vivo, BALB/c female mice; details: 4 μg/mouse iv every two days x3, challenge 25 μg OVA
Description: The BALB/c female mice (5 weeks old) were subcutaneously injected with 10 μg OVA for sensitization, once a week, three times in total. One week after the last sensitization, the OVA-sensitized mice were injected with FA-OVA, OVA and physiological saline via tail vein at a dose of 4 μg/mouse, once every two days for three times in total. After the last administration, the mice were injected with 25 μg OVA (allergen) via tail vein. Changes in body temperature of the mice within 2 hours after the injection were recorded (FIG. 20). In the meanwhile, the serum was collected from the mice and was measured by ELISA for the level of the OVA-specific antibodies in the serum (FIG. 21). The mice without OVA sensitization but stimulated by tail vein injection of OVA served as the Naïve control group.

OVA-specific antibodies = test: Serum OVA-specific antibodies by ELISA after three weekly injections; type: in vivo, BALB/c female mice; details: 10 μg/mouse tail vein, once a week, three times; one week after last administration
Source text: (§1) The role of folate modification in mediating humoral immunosuppression and in reducing Anti-Drug Antibodies (ADA) of biomacromolecular drugs was investragated by using ovalbumin (OVA) as a model protein. OVA has strong immunogenicity and can induce the body to produce an immune response. Repeated stimulation of mice by OVA can cause the mice to produce lots of specific antibodies. The BALB/c female mice (5 weeks old) were randomly divided into FA-OVA (folate-OVA complex. Example 1) group, OVA group and physiological saline control group, with 6 mice in each group. FA-OVA, OVA and physiological saline were administered to mice via tail vein injection at a dose of 10 μg/mouse, once a week, three times in total.
One week after the last administration, the serum of the mice was collected and was measured by ELISA for the expression of OVA-specific antibodies in the serum. The results are shown in FIG. 12, wherein FIGS. 12a, 12b, 12c and 12d show the results of OVA-specific IgE, IgG, IgG1 and IgG2a, respectively.

[7] = test system: anaphylactic shock induced by OVA (allergen); test: Prevention of anaphylactic shock: pretreatment, then OVA challenge; type: in vivo; details: pretreatment 10 μg OVA/mouse iv weekly x3; challenge 10 μg OVA
Description: The BALB/c female mice (5 weeks old) were randomly divided into FA-OVA group, OVA group and physiological saline group, with 10 mice in each group. FA-OVA or OVA or physiological saline of an equal volume was administered to the mice via tail vein injection at a dose of 10 μg OVA/mouse, once a week for a total of three times. One week after the last administration, each mouse was injected with 10 μg OVA (allergen) via tail vein. Changes in body temperature of the mice within 2 hours after OVA stimulation were recorded (FIG. 18). In the meanwhile, the serum was collected from the mice, and was measured by ELISA for the expression of OVA-specific antibodies in the serum (FIG. 19). […] Therefore, folate modification can effectively prevent anaphylactic shock induced by allergens.

splenic B lymphocytes = test: Splenic B lymphocyte proliferation (CD86) and differentiation (GL-7) after three weekly injections; type: in vivo, BALB/c female mice; details: 10 μg/mouse tail vein, once a week, three times; one week after last administration
Source text: as §1
One week after the last administration, the spleen lymphocyte suspension was collected and subjected to flow cytometry for analysis of proliferation and differentiation of splenic B lymphocytes. CD86 was used as a marker for cell proliferation, and GL-7 was used as germinal center B-cell surface marker. FIGS. 11a and 11b provide the CD86 flow sorting graphs and statistical analysis results of mouse spleen lymphocytes, respectively. FIGS. 11c and 11d provide the GL7 flow sorting graphs and statistical analysis results of mouse spleen lymphocytes, respectively.

Compound: adalimumab
- incidence of ADAs [1]: 70-100%

Compound: Nc1nc2ncc(CNc3ccc(C(=O)N[C@@H](CCC(=O)O)C(=O)O)cc3)nc2c(=O)[nH]1 [folic acid]
- water solubility [2]: insoluble in water
- level of OVA-specific IgG in the serum (OVA-specific IgG; day 28, FA(ig)+OVA group, after FA discontinued): comparable to that in the OVA group
- level of OVA-specific IgG in the serum (OVA-specific IgG; days 14 and 21, FA(ig)+OVA group: 3 mg free folic acid by gavage daily for two weeks, OVA 10 μg/mouse iv day 0 and 7): significantly lower than that in the OVA group
- level of antibodies against infliximab [3]: significantly lower than that in the infliximab group
- levels of KLH-specific antibodies in serum (KLH-specific antibodies): similar
- level of antibodies against trastuzumab [4]: significantly lower than that in the trastuzumab group
- production of the antibodies against liposomes (sLip) (antibodies against sLip): effectively reduce the production of the antibodies against liposomes, and the effect increases as the concentration of folic acid increases

Compound: FA-PLP: folate-modified PLP polypeptide HSLGKWLGHPDKF (also: folate conjugate, site not given here)
- immune tolerance to PLP / inflammatory response (incidence score, Kono method) [5]: causes the body's immune tolerance to PLP and contributes to reducing the inflammatory response

Compound: FA-OVA: folate-modified ovalbumin complex, EDC coupling of folic acid to OVA
- effect of treatment on anaphylaxis (body temperature curve) [6]: desensitizing effect
- expressions of OVA-specific antibodies IgE, IgG1 and IgC2a in serum [6]: comparable to those in the physiological saline group and significantly decreased compared with those in the OVA group
- time for body temperature to return to normal after OVA challenge [6]: ≤ 2 h
- expression of OVA-specific antibodies in the serum (IgE, IgG, IgG1, IgG2a) (OVA-specific antibodies): significantly inhibited
- body temperature within 2 hours after OVA stimulation [7]: did not change significantly
- serum OVA-specific antibodies (IgE, IgG1, IgG2a) after challenge [7]: substantially comparable to the physiological saline group
- proliferation of B-cell (CD86) and differentiation into germinal center B-cell (GL-7) (splenic B lymphocytes): significantly inhibited
